In publication PMC12706794, “Identification and Characterization of a Small-Molecule Inhibitor of the Pseudomonas aeruginosa SOS Response” (ACS Infectious Diseases, 2025):

Columns and labels:
[1] = tested on: A549 cells; assay: Cytotoxicity assessment by MTT assay, A549; format: cell-based, Human; settings: combination of ciprofloxacin 0.5 μg/mL and A12 100 μg/mL, 3 h
Protocol: A549 cells were seeded in flat-bottom 96-well plates at 5 × 10^4 cells/well. THP-1 monocytes were differentiated into macrophages using PMA as described above, rested in PMA-free medium, detached by trypsinization, and seeded at 5 × 10^4 cells/well. Plates were incubated overnight to allow cell attachment. […] Test medium was then removed and replaced with fresh medium containing 0.5 mg/mL 3-(4,5-dimethylthiazol-2-yl)-2,5-diphenyltetrazolium bromide (MTT). After a 2 h incubation, the medium was discarded, formazan crystals were solubilized with 100 μL of DMSO, and absorbance was measured at 570 nm using a spectrophotometer (Varioskan LUX Multimode Microplate Reader, Thermo Fisher Scientific). Cell viability was expressed as a percentage relative to the untreated controls.

[2] = molecular target: T1, LexAPa (Pseudomonas aeruginosa, UniProt P37452); assay: ESI-MS analysis of LexAPa preincubated with A12; format: binding, P. aeruginosa; settings: 2 mM A12, 2 h at 25 °C; disulfide bond at Cys104, lost with 5 mM DTT
T1 construct: different LexAPa variants (FlAsH-LexAPa ^CTD vs full-length LexAPa) were used in the two assays; made in house; host or cells: E. coli BL21(DE3)
Protocol: Then, ESI-MS analysis was carried out on both RecAPa and LexAPa alone and preincubated with A12 (referred to as RecAPa-A12 and LexAPa-A12, respectively).
MS analysis was carried out on 5 μL samples of compound A12 (2 mM), of the proteins 6His-LexAPa and 6His-RecAPa (50 μM), and of the same proteins incubated with 2 mM A12 (2 h incubation at 25 °C, 10% v/v DMSO in 100 mM NaHCO3 pH 7.0). Aliquots of the latter samples were treated with 5 mM dithiothreitol (DTT) for 1 h at 25 °C before being buffer-exchanged in 100 mM NaHCO3 at pH 7.0. Samples were analyzed by an electrospray ionization (ESI) mass spectrometer equipped with a Xevo G2-XS ESI-Q-TOF mass spectrometer (Waters Corporation, Milford, Massachusetts, USA). Measurements were carried out at 1.5–1.8 kV capillary voltage and 30–40 V cone voltage.
Tryptic digestion was obtained at a 1:20 trypsin to protein ratio (by weight) after the incubation of the proteins (6His-LexAPa and 6His-RecAPa) with chemical compound A12. The reaction was left at 37 °C overnight and then stopped by freezing at – 20 °C. Proteolytic mixtures were analyzed by LC–MS, using an Agilent AdvanceBio Peptide Map column (2.1 × 150 mm × 2.7 μm; Santa Clara, CA, USA) connected to an Acquity H-Class instrument (Waters Corporation, Milford, Massachusetts, USA). […]

T1 sequence (P37452 whole entry): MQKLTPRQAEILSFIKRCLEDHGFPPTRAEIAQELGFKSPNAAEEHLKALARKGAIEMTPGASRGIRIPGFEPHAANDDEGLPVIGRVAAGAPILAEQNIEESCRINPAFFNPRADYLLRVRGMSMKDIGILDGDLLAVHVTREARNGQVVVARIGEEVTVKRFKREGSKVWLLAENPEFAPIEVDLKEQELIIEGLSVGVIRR

## O=C(O)CCNc1ccccc1S [A12, 3-(2-sulfanylanilino)propanoic acid]
[1]
  Cell viability compared to the untreated control: higher than 80%
[2]
  Mass difference of A12-modified LexAPa versus unmodified protein: 195 Da
